Assay results taken from article PMC12904578 (PLOS Pathogens, 2026).
“Also recorded” adds a separate entry of the source.

Tests used:
[1] = test system: VN1194 H5 HA from A/Vietnam/1194/2004 (H5N1); conditions: cited from earlier work
H5FR H5 HA = type: binding, A/duck/France/161108h/2016 (H5N8)
[2] = test system: Sh2 H7 HA from A/Shanghai/2/2013 (H7N9); conditions: cited from earlier work
[3] = molecular target: H5FR H5 HA ectodomain from A/duck/France/161108h/2016 (H5N8), polyhistidine-tagged (SPR form) (influenza A virus A/duck/France/161108h/2016 (H5N8)); test: SPR

## CC(=O)NC1C(O)OC(CO)C(OC2OC(CO)C(O)C(OC3(C(=O)O)CC(O)C(NC(C)=O)C(C(O)C(O)CO)O3)C2O)C1O (centres unmarked) [3´-SLN, NeuAcα2–3Galβ1–4GlcNAc]
[1]
  Siaα2–3Gal linkage configuration of 3´-SLN in VN1194 H5 HA: trans configuration

## NeuAcα2–3Galβ1–3GlcNAcβ1–3Galβ1–4Glc [LSTa]
H5FR H5 HA
  binding interactions in H5FR HA receptor binding site: Sia-1, Gal-2 and GlcNAc-3 were ordered; also recorded: similarly to VN1194 HA or H5VN HA
[1]
  LSTa residues visible in VN1194 H5 HA complex: only Sia-1 and Gal-2 were visible

## NeuAcα2–3Galβ1–4GlcNAcβ1–3GalNAcα-Thr [glycan #21]
[2]
  binding mode of glycan in Sh2 H7 HA: adopts a cis configuration in the Siaα2–3Gal linkage

## O-linked glycopeptide compound 2 (core 1 on peptide FVTIG, no sialic acid)
[3]
  Kd: > 650 µM
